Measurements as given in the NIST ThermoML archive (doi:10.1016/j.tca.2014.02.019).
“And” between values parts separate entries of the source, which are not always exact repeats. Equal entries are not always repeated. ± gives the expanded uncertainty stated by the source.

Columns and labels:
[1] = for viscosity / mass density: 101 kPa, Liquid; for viscosity: Falling or rolling sphere viscometry; for mass density: Vibrating tube method
[2] = xn = mol fraction of the nth substance listed; conditions: 101 kPa, Liquid, x2 = 0; for viscosity: Falling or rolling sphere viscometry; for mass density: Vibrating tube method

Row | Structure (SMILES) | viscosity ([1]; 313.15 K) [mPa·s] | mass density ([1]; 313.15 K) [kg/m3] | viscosity ([1]; 318.15 K) [mPa·s] | viscosity ([1]; 323.15 K) [mPa·s] | mass density ([1]; 323.15 K) [kg/m3] | viscosity ([1]; 328.15 K) [mPa·s] | mass density ([1]; 328.15 K) [kg/m3] | viscosity ([1]; 333.15 K) [mPa·s] | mass density ([1]; 333.15 K) [kg/m3] | viscosity ([1]; 338.15 K) | mass density ([1]; 338.15 K) [kg/m3] | viscosity ([1]; 343.15 K) | mass density ([1]; 343.15 K) [kg/m3] | viscosity ([2]; 313.15 K) [mPa·s] | mass density ([2]; 313.15 K) [kg/m3] | viscosity ([2]; 318.15 K) [mPa·s] | viscosity ([2]; 323.15 K) [mPa·s] | mass density ([2]; 323.15 K) [kg/m3] | viscosity ([2]; 328.15 K) [mPa·s] | mass density ([2]; 328.15 K) [kg/m3] | further results
1 | O [water] | 0.681 ± 0.11 | 992.15 ± 0.2 | 0.63 ± 0.1 | 0.593 ± 0.095 | 987.93 ± 0.2 | 0.56 ± 0.09 | 985.69 ± 0.2 | 0.528 ± 0.085 | 983.17 ± 0.2 | 0.519 ± 0.083 mPa·s and 0.5 ± 0.08 mPa·s | 980.3 ± 0.2 | 0.51 ± 0.082 mPa·s and 0.473 ± 0.076 mPa·s | 978.1 ± 0.2 | – | – | – | – | – | – | – | viscosity ([1]; 298.15 K): 0.89 ± 0.14 mPa·s; viscosity ([1]; 303.15 K): 0.808 ± 0.13 mPa·s; viscosity ([1]; 308.15 K): 0.74 ± 0.12 mPa·s
2 | O [water] + CCOS(=O)(=O)[O-].CC[N+]1(C)CCCCC1 | – | – | – | – | – | – | – | – | – | – | – | – | – | 0.681 ± 0.11 | 992.15 ± 0.2 | 0.63 ± 0.1 | 0.593 ± 0.095 | 987.93 ± 0.2 | 0.56 ± 0.09 | 985.69 ± 0.2 | viscosity ([2]; 298.15 K): 0.89 ± 0.14 mPa·s; viscosity ([2]; 303.15 K): 0.808 ± 0.13 mPa·s; viscosity ([2]; 308.15 K): 0.74 ± 0.12 mPa·s; viscosity ([2]; 333.15 K): 0.528 ± 0.085 mPa·s; mass density ([2]; 333.15 K): 983.17 ± 0.2 kg/m3; viscosity ([2]; 338.15 K): 0.5 ± 0.08 mPa·s; mass density ([2]; 338.15 K): 980.3 ± 0.2 kg/m3; viscosity ([2]; 343.15 K): 0.473 ± 0.076 mPa·s; mass density ([2]; 343.15 K): 978.1 ± 0.2 kg/m3
3 | O [water] + CCOS(=O)(=O)[O-].CC[N+]1(C)CCOCC1 | – | – | – | – | – | – | – | – | – | – | – | – | – | 0.681 ± 0.11 | 992.15 ± 0.2 | 0.63 ± 0.1 | 0.593 ± 0.095 | 987.93 ± 0.2 | 0.56 ± 0.09 | 985.69 ± 0.2 | viscosity ([2]; 298.15 K): 0.89 ± 0.14 mPa·s; viscosity ([2]; 303.15 K): 0.808 ± 0.13 mPa·s; viscosity ([2]; 308.15 K): 0.74 ± 0.12 mPa·s; viscosity ([2]; 333.15 K): 0.528 ± 0.085 mPa·s; mass density ([2]; 333.15 K): 983.17 ± 0.2 kg/m3; viscosity ([2]; 338.15 K): 0.5 ± 0.08 mPa·s; mass density ([2]; 338.15 K): 980.3 ± 0.2 kg/m3; viscosity ([2]; 343.15 K): 0.473 ± 0.076 mPa·s; mass density ([2]; 343.15 K): 978.1 ± 0.2 kg/m3
4 | CCOS(=O)(=O)[O-].CC[N+]1(C)CCCC1 [1-ethyl-1-methylpyrrolidinium ethyl sulfate] | 78.32 ± 13 | 1176.31 ± 2.7 | 64.72 ± 10 | 53.51 ± 8.6 | 1170.95 ± 2.6 | 44.82 ± 7.2 | 1168.27 ± 2.6 | 37.95 ± 6.1 | 1165.59 ± 2.6 | 32.87 ± 5.3 mPa·s | 1162.91 ± 2.6 | 29.23 ± 4.7 mPa·s | 1160.23 ± 2.6 | – | – | – | – | – | – | – | mass density ([1]; 318.15 K): 1173.63 ± 2.6 kg/m3; Normal melting temperature ([1]; Crystal, visual observation): 36.92 ± 0.5 °C
5 | CCOS(=O)(=O)[O-].CC[N+]1(C)CCOCC1 [4-ethyl-4-methylmorpholinium ethyl sulfate] | 2426 ± 480 | 1242.67 ± 3 | 1677 ± 320 | 1129 ± 210 | 1236.35 ± 3 | 779.3 ± 140 | 1233.2 ± 2.9 | 552.3 ± 98 | 1230.06 ± 2.9 | 400.8 ± 69 mPa·s | 1226.93 ± 2.9 | 297.3 ± 50 mPa·s | 1223.81 ± 2.9 | – | – | – | – | – | – | – | mass density ([1]; 298.15 K): 1252.26 ± 3 kg/m3; mass density ([1]; 303.15 K): 1249.05 ± 3 kg/m3; mass density ([1]; 308.15 K): 1245.86 ± 3 kg/m3; mass density ([1]; 318.15 K): 1239.51 ± 3 kg/m3
6 | O [water] + CCOS(=O)(=O)[O-].CC[N+]1(C)CCCC1 | – | – | – | – | – | – | – | – | – | – | – | – | – | 0.681 ± 0.11 | 992.15 ± 0.2 | 0.63 ± 0.1 | 0.593 ± 0.095 | 987.93 ± 0.2 | 0.56 ± 0.09 | 985.69 ± 0.2 | viscosity ([2]; 333.15 K): 0.528 ± 0.085 mPa·s; mass density ([2]; 333.15 K): 983.17 ± 0.2 kg/m3; viscosity ([2]; 338.15 K): 0.519 ± 0.083 mPa·s; mass density ([2]; 338.15 K): 980.3 ± 0.2 kg/m3; viscosity ([2]; 343.15 K): 0.51 ± 0.082 mPa·s; mass density ([2]; 343.15 K): 978.1 ± 0.2 kg/m3
7 | CCOS(=O)(=O)[O-].CC[N+]1(C)CCCCC1 [1-ethyl-1-methylpiperidinium ethyl sulfate] | 549.9 ± 97 | 1171.79 ± 2.6 | 391.8 ± 68 | 285.8 ± 48 | 1165.73 ± 2.6 | 212.6 ± 35 | 1162.62 ± 2.6 | 162.5 ± 27 | 1159.54 ± 2.6 | 126.1 ± 21 mPa·s | 1156.56 ± 2.6 | 99.87 ± 16 mPa·s | 1153.58 ± 2.6 | – | – | – | – | – | – | – | viscosity ([1]; 298.15 K): 1821 ± 360 mPa·s; mass density ([1]; 298.15 K): 1181.33 ± 2.7 kg/m3; viscosity ([1]; 303.15 K): 1186 ± 220 mPa·s; mass density ([1]; 303.15 K): 1178.23 ± 2.7 kg/m3; viscosity ([1]; 308.15 K): 795.7 ± 140 mPa·s; mass density ([1]; 308.15 K): 1175.1 ± 2.7 kg/m3; mass density ([1]; 318.15 K): 1168.85 ± 2.6 kg/m3
